The text below walks through data of PMC7502707, “Characterization and validation of a preventative therapy for hypertrophic cardiomyopathy in a murine model of the disease” (Proceedings of the National Academy of Sciences of the …, 2020).

Marks after values point to notes of the source that are not given here.

One experiment concerns cTnI-G203S mice. Nature of the experiment: Echocardiography of treated cTnI-G203S mice. It counts as in vivo, mouse. The following applies: for FS / HW:BW / IVSD / IVSS / LVDPW / LVEDD / LVESD / LVSPW: 10 μM i.p. 3×/wk/5 wk, mean. The procedure:
Male mice expressing the human cTnI gene encoding the human disease-causing mutation cTnI-G203S were used for all studies. The mice develop hallmark features of HCM by 21 wk ([7], [13]). Male mice expressing the normal human cTnI gene were used as controls (wt). Ten-week-old mice were used for in vitro studies. For in vivo studies, 20- or 30-wk-old cTnI-G203S mice were treated with 10 μM AID-TAT or AID[S]-TAT via intraperitoneal injection, 3×/wk/5 wk. In vivo dose of AID-TAT or AID[S]-TAT (10 μM) was calculated based on blood volume, equating to ∼2 mg/kg total BW. Male animal models were used to eliminate potential differences in responses due to sex. Experiments were performed in a total of 21 wt (AID[S]-TAT), 6 wt (AID-TAT), 15 cTnI-G203S (AID[S]-TAT), and 26 cTnI-G203S (AID-TAT) mice. All animals were randomly assigned to treatment groups. All animal studies were approved by the Animal Ethics Committee of The University of Western Australia in accordance with the 2013 Australian Code for the Care and Use of Animals for Scientific Purposes ([58]).
Echocardiographic measurement of left ventricular function were performed on mice under light methoxyflurane anesthesia using an i13L probe on a Vivid 7 Dimension ultrasound system (GE Healthcare), as previously described ([13], [29], [30]). Each n represents the average of quantitative measurements from wt or cTnI-G203S mice for each treatment group. Detailed methods are provided in SI Appendix.
Echocardiographic measurement of left ventricular function were performed on mice under light methoxyflurane anesthesia using an i13L probe on a Vivid 7 Dimension ultrasound system (GE Healthcare, Little Chalfont, United Kingdom) as previously described (4, 7). Echocardiographic measurements were taken on M-mode in triplicate from separate mice at a sweep speed of 200 mm/s. Each n represents the average of quantitative measurements from wt or cTnI-G203S mice for each treatment group. Measurements of left ventricular end diastolic diameter (LVEDD), left ventricular end systolic diameter (LVESD), fractional shortening (FS), left ventricular posterior wall in diastole (LVDPW), left ventricular posterior wall in systole (LVSPW), interventricular septum in diastole (IVSD), interventricular septum in systole (IVSS) and end diastolic diameter (EDD) were made. FS was calculated by the formula [(LVEDD-LVESD)/EDD] x 100. […]
(BioAssay Systems, Hayward CA). All assays were performed as per manufacturer’s instructions, using a spectrophotometer (PowerWave XS).

Experiment [1] deals with wt and cTnI-G203S cardiac myocytes. In words: Mitochondrial flavoprotein oxidation (autofluorescence) after in vitro peptide exposure. Particulars: 10 μM BayK(−). The format is cell-based, mouse. Here is the method: Fluorescence was measured on a Hamamatsu Orca ER digital camera attached to an inverted Nikon TE2000-U microscope. Fluorescent indicator 5,5′,6,6′-tetrachloro-1,1′,3,3′-tetraethylbenzimidazolylcarbocyanine iodide was used to measure Ψm in cardiac myocytes, as previously described (JC-1, Molecular Probes) ([61]). Autofluorescence was used to measure flavoprotein oxidation in cardiac myocytes based on previously described methods ([13], [29], [62]). Responses to drugs were reported as a percentage increase from the basal average. Detailed methods are provided in SI Appendix. […]
Autofluorescence […]
was used to measure flavoprotein oxidation in cardiac myocytes based on previously described methods (ex = 480 nm, em = 535 nm, interval = 1 min, exposure = 1.5 seconds) (4, 6, 7). Carbonyl cyanide-4-(trifluoromethoxy)phenylhydrazone (FCCP, 50 μM, mitochondrial electron transport chain uncoupler) was added at the end of each experiment to increase flavoprotein oxidation confirming signal was mitochondrial in origin. Ratiometric JC-1 or flavoprotein fluorescent signals were quantified by manually tracing myocytes and subtracting an equivalent background region […]
Responses to drugs were reported as a percentage increase from the basal average. […]
(10). Cardiac myocytes were treated with relevant drugs in 96 well plates. MTT was added to each well to a final concentration of 0.5 mg/ml and the rate of the increase in absorbance immediately measured using a spectrophotometer at 37°C (PowerWave XS, 570 nm, reference wavelength of 620 nm). The rate of the increase in absorbance in response to treatments was expressed as a percentage of the rate of the increase prior to the addition of treatments. Each n represents number of replicates for each treatment group from cardiac myocytes isolated from a total of 6 wt (AID[S]- TAT), 4 cTnI-G203S (AID[S]-TAT), and 3 (AID-TAT) mice.
Immunoblot of ICa-L protein

Setting [2] is: Post-HCM treatment (from 30 wk), 35-wk-old cTnI-G203S mice, n = 5.
Where [3] appears, read: Pre-HCM treatment (from 20 wk), 25-wk-old cTnI-G203S mice, n = 7 AID(S)-TAT, n = 6 AID-TAT.

In the case of QQLEEDLKGYLDWITQAE [AID-TAT], in the experiment with cTnI-G203S mice (setting [2]), the FS was 48.48%, the “HW:BW” value was determined as 5.81 mg/g, the IVSD is 0.95 mm and the IVSS stood at 1.05 mm. Also, in the experiment with cTnI-G203S mice (setting [2]), the LVDPW is recorded as 1.26 mm, the LVEDD came to 3.18 mm, the LVESD came to 1.67 mm and the LVSPW was found to be 1.43 mm. Moreover, in the experiment on cTnI-G203S mice (setting [3]), the FS is 38.26^† %, the “HW:BW” value is recorded as 4.70^† mg/g, the IVSD is given as 0.73^† mm and the IVSS was 0.82^† mm. In the experiment on cTnI-G203S mice (setting [3]), the LVDPW came out at 1.23 mm, the LVEDD is listed as 3.33^† mm, the LVESD is listed as 2.06^† mm and the LVSPW is recorded as 1.37 mm. For the same sequence, the “reversal of established HCM” value with cTnI-G203S mice (cTnI-G203S mice with established HCM, 10 μM 3×/wk/5 wk) is listed as “not effective at reversing the cardiomyopathy”. Also, in the experiment on cTnI-G203S mice (precardiomyopathic cTnI-G203S mice, 10 μM 3×/wk/5 wk), the “development of HCM” value is recorded as “prevents the development of HCM”. In addition, in experiment [1] (cTnI-G203S myocytes, 1 μM peptide in vitro), the “increase in flavoprotein oxidation in response to BayK(−)” value (“increase in flavoprotein oxidation” for short) was “attenuated the response”. Besides, the “increase in flavoprotein oxidation” value in experiment [1] (cTnI-G203S myocytes, 10 μM peptide in vitro) is “significantly attenuated the response”. Further, in experiment [1] (wt myocytes, 1 μM peptide in vitro), the “increase in flavoprotein oxidation” value was “attenuated the response in cTnI-G203S but not wt myocytes”. Also, the “increase in flavoprotein oxidation” value in experiment [1] (wt myocytes, 10 μM peptide in vitro) was “significantly attenuated the response”.
